US20240307409A1, “ARGININE METHYLTRANSFERASE INHIBITOR AND USE THEREOF” (Cytosinlab Therapeutics Co., Ltd., priority 2021, published 2024)

Tests used:
PRMT1 = PRMT1 (Homo sapiens, UniProt Q99873); assay: PRMT1 enzyme activity test; format: biochemical; details: 0.5 nM PRMT1, 3H-SAM, peptide
Protocol: PRMT1 enzyme activity test were performed in a buffer prepared on the same day 5 consisting of 10 mMTirs-HCl (pH=8.0), 0.01% Tween-20 and 1 mM DTT. The compounds were prepared to the highest inhibitor concentration ultimately required in the 100× reaction with 100% DMSO and then transferred to one well of a 384-well Echo plate (Echo-eligible 384-well polypropylene microplates 2.0, transparent, flat-bottomed) and sequentially diluted in the next well with a 3-fold dilution of 100% DMSO, and so on, with a total of 10 concentrations based on Precision. 100% DMSO was added to two empty wells to serve as control well without compound and control well without enzyme in the same 384-well Echo plate. 250 nL of compound was transferred from each well of the 384-well Echo plate to a 384-well assay plate (384-well polypropylene storage microplate) via the Echo 550 liquid processor. For wells with compounds and control well without compound, a mixture (15 uL) containing PRMT1 enzyme was added to the 384-well assay plate. For control wells without enzyme, the mixture containing the assay buffer (15 uL) was added instead. The compounds were allowed to incubate with PRMT1 for 15 minutes at room temperature, and then a mixture containing ^3H-SAM and peptide (10 uL) was added to start the reaction (final volume=25 uL). The final concentrations of the components were as follows: 0.5 nM for PRMT1, 0.25 uM for ^3H-SAM, 0.1 uM for the peptide, and 1% DMSO. After 120 min of incubation, the assay was terminated by the addition of non-radiolabeled SAM (5 uL) to a final concentration of 125 uM, which diluted 3H-SAM to a level at which its incorporation into the peptide substrate was no longer detected. 25 μL of the reaction solution from the 384-well assay plate was then transferred to a 384-well detection plate (Streptavidin FlashPlate HTS PLUS, high volume, 384 wells). The biotinylated peptide was allowed to bind to the surface of the antibiotic protein streptavidin for at least 60 minutes at room temperature. The Flashplate was then washed three times with 0.1% Tween-20 in a BioTek plate washer. Plates were read on a microplate counter (MicroBeta2) to measure the amount of ^3H-labeled peptide bound to the surface of the detection plate, measured in counts per minute (cpm).
The raw data were copied from the Reader and the inhibition values were calculated in Excel by Equation (1), Equation (1): Inh %=(CPMmax−CPMcmpd)/(CPMmax−CPMmin)*100, wherein the Max signal was obtained from the enzyme-substrate interaction and the Min signal was obtained from the substrate. IC50 values were obtained by fitting the data through equation (2) using XLFit add-in for Excel version […]. Equation (2): Y=Bottom+(Top-Bottom)/(1+((IC50/X)[…])), wherein, Y represents inhibition percentage and X represents compound concentration.

Toledo cells = assay: Toledo cell proliferation inhibition assay; format: cell-based; details: Homo sapiens, Toledo, 144 h; six-day assay, CellTiter-Glo
Protocol: • A. Purpose: to determine the effects of compounds on Toledo cells through a six-day cell proliferation assay. • B. Reagents and materials: • 1. Cell culture medium: RPMI 1640+10% FBS • 2. 384-well cell culture plate (Corning, item #3764) • 3. 0.4% Taipan Blue Staining Solution (Thermo Fisher, item #T10282) • 4. cell counting plate (Thermo Fisher, item #C10228) • 5. 50 ml reagent reservoir (Corning, item #4870) • 6. 50 ml conical sterile polypropylene centrifuge tube (Thermo Fisher, item #339653) • 7. Automatic cell counter (Thermo Fisher, item #AMQAX1000) • 8. CellTiter-Glo Luminescent Cell Viability Detection Reagent (Promega, item #G7572) • 9. SpectraMax i3x Multi-Mode Enzyme Labeling Instrument (Megaman Molecular Instruments, item #5024062) • C. Experimental method • 1. Resuspending the cells with a pipette. • 2. 0.4% Taipan blue staining solution and Toledo cells were mixed in equal proportion, and the cells were counted using an automatic cell counter. • 3. Toledo cells were diluted to a final concentration of 2000 cells per well and transferred to a 50 ml reagent reservoir. • 4. Diluted Toledo cells were added to a 384-well cell culture plate, 40 ul per well. • 5. The cells were shortly centrifuged and settled. • 6. The cells were incubated in a 37° C., 5% CO2 cell culture incubator. • 7. The substrate in the CellTiter-Glo Luminescent Cell Viability Detection Reagent was mixed with the solution. • 8. After six days, the 384-well cell culture plate was taken from the incubator and 20 ul of configured CellTiter-Glo reagent was added to each well. • 9. 384-well cell culture platewasmixed in an orbital shaker for 30 minutes. • 10. Signal of luminescence was detected with a SpectraMax i3x multi-mode enzyme labeling instrument.

PRMT1, sequence (Q99873 whole entry): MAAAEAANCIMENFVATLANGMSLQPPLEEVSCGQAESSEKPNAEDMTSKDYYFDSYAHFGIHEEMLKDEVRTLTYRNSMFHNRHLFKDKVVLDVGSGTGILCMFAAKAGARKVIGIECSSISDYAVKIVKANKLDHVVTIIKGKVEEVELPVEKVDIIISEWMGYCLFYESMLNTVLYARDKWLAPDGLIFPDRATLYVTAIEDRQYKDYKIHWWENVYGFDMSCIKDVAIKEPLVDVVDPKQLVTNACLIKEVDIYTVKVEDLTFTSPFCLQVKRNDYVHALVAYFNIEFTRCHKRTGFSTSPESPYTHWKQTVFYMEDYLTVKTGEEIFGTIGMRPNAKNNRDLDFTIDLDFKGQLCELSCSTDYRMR

Row | Structure (SMILES) | IC50 (PRMT1) [nM] | IC50 (Toledo cells) [nM]
1 | CNCCN(C)Cc1ccc(C)nc1C1CCN(c2cc(C)cc(Cl)c2)CC1 [P058] | < 50 | < 1000
2 | CNCCN(C)Cc1nc(C)ccc1C1CCN(CCc2ccccc2)CC1 [P059] | < 50 | 1000 to 5000
3 | CNCCN(C)Cc1ccccc1C1=CCC(OC(C)C)CC1 (centres unmarked) [P060] | < 50 | < 1000
4 | CNCCN(C)Cc1ccc(C)nc1C1CCN(c2cccc(C(F)F)c2)CC1 [P061] | < 50 | < 1000
5 | CNCCN(C)Cc1ccc(C)nc1C1CCN(c2cc(C)cc(C)c2)CC1 [P063] | < 50 | < 1000
6 | CNCCN(C)Cc1ccc(C)nc1C1CCN(c2ccc(F)c(Cl)c2)CC1 [P064] | < 50 | < 1000
7 | CNCCN(C)Cc1ccc(C)nc1C1CCN(c2ccc(F)c(C)c2)CC1 [P065] | < 50 | < 1000
8 | CNCCN(C)Cc1ccc(C)nc1C1CCN(c2cc(C)cc(F)c2)CC1 [P066] | < 50 | < 1000
9 | CNCCN(C)Cc1ccc(C)nc1C1CCN(c2cc(C)ccc2F)CC1 [P067] | < 50 | < 1000
10 | CNCCN(C)Cc1ccc(C(C)N)cc1C1CCc2cc(F)c(F)cc2CC1 (centres unmarked) [P070] | < 50 | < 1000
11 | CNCCN(C)Cc1ccc(Cl)nc1C1CCN(c2cccc(C)c2)CC1 [P072] | < 50 | < 1000
12 | CNCCN(C)Cc1ccc(C)nc1C1CCN(c2cccc(Cl)c2)CC1 [P073] | < 50 | < 1000
13 | CNCCN(C)Cc1ccc(F)cc1C1CCN(c2cccc(C(C)(C)O)c2)CC1 [P076] | < 50 | 1000 to 5000
14 | CNCCN(C)Cc1ncccc1C1CCN(c2cc(C)cc(CN(C)C)c2)CC1 [P082] | < 50 | 1000 to 5000
15 | CNCCN(C)Cc1ccc(C)nc1C1CCN(c2ccc(F)cc2)CC1 [P086] | < 50 | 1000 to 5000
16 | CNCCN(C)Cc1ccc(F)cc1C1CCN(C(=O)Cc2ccccc2)CC1 [P087] | < 50 | 1000 to 5000
17 | CNCCN(C)Cc1nc(C)ccc1N1CCc2cc(F)c(F)cc2CC1 [P093] | < 50 | < 1000
18 | CNCCN(C)Cc1ccncc1C1CCN(c2cccc(C)c2)CC1 [P097] | < 50 | 1000 to 5000

Row | Structure (SMILES) | IC50 (PRMT1) [nM] | IC50 (Toledo cells) [nM]
19 | CNCCN(C)Cc1ccc(N(C)C)nc1C1CCN(c2cccc(C)c2)CC1 [P098] | < 50 | < 1000
20 | CNCCN(C)Cc1ccc(C)nc1C1CCN(c2cccc(N(C)C)c2)CC1 [P099] | < 50 | 1000 to 5000
21 | CNCCN(C)Cc1cc(C(=O)N(C)C)ccc1C1CCN(c2cccc(C)c2)CC1 [P100] | ≥ 500 | ≥ 5000
22 | CNCCN(C)Cc1ccc(C(=O)N(C)C)cc1C1CCN(c2cccc(C)c2)CC1 [P101] | 50 to 500 | 1000 to 5000
23 | CNCCN(C)Cc1ccc2nn(C)cc2c1C1CCc2cc(F)c(F)cc2CC1 [P104] | < 50 | < 1000
24 | CNCCN(C)Cc1ccc(C(C)N)cc1C1CCN(c2cccc(C)c2)CC1 (centres unmarked) [P105] | < 50 | < 1000
25 | CNCCN(C)Cc1ccc(C)nc1N1CCc2ccccc2CC1 [P110, N1-((2-(4,5-dihydro-1H-benzo[d]azepin-3(2H)-yl)-6-methylpyridin-3-yl)methyl)-N1,N2-dimethylethane-1,2-diamine] | < 50 | < 1000
26 | CCOCC1(COCC)CC=C(c2c(C)cccc2CN(C)CCNC)CC1 [P111] | < 50 | < 1000
27 | CNCCN(C)Cc1ccc(C)nc1N1CCN(c2cccc(C)c2)CC1 [P116] | < 50 | 1000 to 5000
28 | CCOCC1(COCC)CC=C(c2ccccc2CN(C)CCNC)CC1 [P117] | < 50 | < 1000
29 | CCOCC1(COCC)CCN(c2c(Br)cccc2CN(C)CCNC)CC1 [P123] | < 50 | 1000 to 5000
30 | CNCCN(C)Cc1ccc(F)cc1C1CCc2nc3ccccc3nc2CC1 [P132] | < 50 | < 1000
31 | CNCCN(C)Cc1ncccc1C1CCN(c2ccc(-c3ccncc3)cc2)CC1 [P133] | < 50 | < 1000
32 | CCOCc1cccc(N2CCC(c3cccnc3CN(C)CCNC)CC2)c1 [P134] | < 50 | 1000 to 5000
33 | CNCCN(C)Cc1ccc(-c2cn[nH]c2)cc1C1CCc2cc(F)c(F)cc2CC1 [P135] | < 50 | < 1000
34 | CNCCN(C)Cc1ccc(CC(=O)NC)cc1C1CCN(c2cccc(C)c2)CC1 [P140] | < 50 | < 1000
35 | CNCCN(C)Cc1ccc2[nH]nc(C)c2c1C1CCc2cc(F)c(F)cc2CC1 [P146, N1-((4-(2,3-difluoro-6,7,8,9-tetrahydro-5H-benzo[7]cyclopenten-7-yl)-3-methyl-1H-indazol-5-yl)methyl)-N1,N2-dimethylethane-1,2-diamine] | < 50 | < 1000
36 | CNCCN(C)Cc1ccc(F)cc1C1CCN(c2nc(C)cc(N3CCCC3)n2)CC1 [P151] | < 50 | 1000 to 5000

The next lines start with results.

Row | IC50 (PRMT1) [nM] | Structure (SMILES) | IC50 (Toledo cells) [nM]
37 | < 50 | CNCCN(C)Cc1ncccc1C1CCN(c2cccc(C(F)(F)F)c2)CC1 [P068] | 1000 to 5000
38 | < 50 | CNCCN(C)Cc1ncccc1C1CCN(c2cccc(CN3CCCC3)c2)CC1 [P071] | 1000 to 5000
39 | < 50 | CNCCN(C)Cc1ncccc1C1CCN(Cc2cccc(C)c2)CC1 [P077] | 1000 to 5000
40 | < 50 | CNCCN(C)Cc1ncccc1C1CCN(Cc2ccccc2)CC1 [P090] | < 1000
41 | < 50 | CNCCN(C)Cc1ncccc1C1CCN(c2cccc(CN(C)C)c2)CC1 [P092] | < 1000
42 | < 50 | CNCCN(C)Cc1ncccc1C1CCN(c2ccc(C)cc2)CC1 [P096] | 1000 to 5000
43 | < 50 | CNCCN(C)Cc1ncccc1C1CCN(c2cccc(F)c2)CC1 [P102] | < 1000
44 | < 50 | CNCCN(C)Cc1ncccc1C1CCN(c2ccccc2)CC1 [P108] | < 1000
45 | < 50 | CNCCN(C)Cc1nc(C)ccc1N1CCc2ccccc2CC1 [P109] | < 1000
46 | < 50 | CNCCN(C)Cc1ncccc1C1CCN(CC(C)C)CC1 [P113] | < 1000
47 | ≥ 500 | CNCCN(C)Cc1ncccc1N1CC2CC(C1)c1ccccc12 [P119] | 1000 to 5000
48 | < 50 | CNCCN(C)Cc1ncccc1C1CCN(CC(F)(F)F)CC1 [P120] | 1000 to 5000
49 | ≥ 500 | CNCCN(C)Cc1ncccc1N1CCC(N2CCN(C(C)C)CC2)CC1 [P124] | 1000 to 5000
50 | < 50 | CNCCN(C)Cc1ncccc1C1CCCCC1 [P125] | < 1000
51 | < 50 | CNCCN(C)Cc1ncccc1N1CCC(N2CCCCC2)CC1 [P126] | 1000 to 5000
52 | < 50 | CNCCN(C)Cc1ncccc1N1CCc2ccccc2C1 [P127] | 1000 to 5000
53 | ≥ 500 | CNCCN(C)Cc1ncccc1N1CCCc2ccccc21 [P128] | ≥ 5000
54 | < 50 | CNCCN(C)Cc1ncccc1N1CCC(Oc2cc(C)ccc2Cl)CC1 [P144] | < 1000
55 | < 50 | CNCCN(C)Cc1ncccc1N1CCCCCC1 [P145] | 1000 to 5000
